Results on one compound are retold here after ChEMBL document CHEMBL6114955, “Probing into the plasma stability and microsomal stability of thiol-based prodrug derivatives: Using IYS-15, an HDAC inhibitor as the model thiol” (Bioorg Med Chem, 2025).

The nature of data set [1]: Metabolic stability in human liver microsomes assessed as half life in presence of NADPH measured upto 60 mins in presence of 10 uM sulfaphenazole by LC-MS/MS analysis. Type of data set: ADME, Microsome. Particulars: with sulfaphenazole. Background: Liver microsomes are a subcellular fraction often used to study metabolism.
Data set [2] can be described thus: Metabolic stability in human liver microsomes assessed as intrinsic clearance measured per mg of protein in presence of NADPH measured upto 60 mins in presence of 10 uM montelukast by LC-MS/MS analysis. Type of data set: ADME, Microsome. The settings on record: 1 h.
Data set [3] is described as follows: Metabolic stability in human liver microsomes assessed as intrinsic clearance measured per mg of protein in presence of NADPH measured upto 60 mins in presence of 8 uM quinidine by LC-MS/MS analysis. It counts as ADME, Microsome. The settings on record: 1 h.
A short description of data set [4]: Metabolic stability in human liver microsomes assessed as half life in presence of NADPH measured upto 60 mins in presence of 2 uM ketoconazole by LC-MS/MS analysis. It counts as ADME, Microsome. Particulars: with ketoconazole.
The nature of data set [5]: Metabolic stability in human liver microsomes assessed as intrinsic clearance measured per mg of protein in presence of NADPH measured upto 60 mins in presence of 50 uM furafylline by LC-MS/MS analysis. Type of data set: ADME, Microsome. The settings on record: 1 h.
Data set [6] can be described thus: Metabolic stability in human liver microsomes assessed as half life in presence of NADPH measured upto 60 mins by LC-MS/MS analysis. Type of data set: ADME, Microsome.
A short description of data set [7]: Metabolic stability in human liver microsomes assessed as half life in presence of NADPH measured upto 60 mins in presence of 50 uM furafylline by LC-MS/MS analysis. It counts as ADME, Microsome. The settings on record: with furafylline.
The nature of data set [8]: Metabolic stability in human liver microsomes assessed as half life in presence of NADPH measured upto 60 mins in presence of 2 uM ticlopidine by LC-MS/MS analysis. It counts as ADME, Microsome. Particulars: with ticlopidine.
Data set [9] is described as follows: Metabolic stability in human liver microsomes assessed as half life in presence of NADPH measured upto 60 mins in presence of 8 uM quinidine by LC-MS/MS analysis. Type of data set: ADME, Microsome. The settings on record: with quinidine.
The nature of data set [10]: Metabolic stability in human liver microsomes assessed as intrinsic clearance measured per mg of protein in presence of NADPH measured upto 60 mins in presence of 2 uM ticlopidine by LC-MS/MS analysis. Type of data set: ADME, Microsome. The settings on record: 1 h.
Data set [11] is described as follows: Metabolic stability in human liver microsomes assessed as intrinsic clearance measured per mg of protein in presence of NADPH measured upto 60 mins in presence of 10 uM sulfaphenazole by LC-MS/MS analysis. Particulars: 1 h. Type of data set: ADME, Microsome.
The nature of data set [12]: Ratio of half life in human liver microsomes in presence of BNPP to t1/2 in human liver microsomes absence of BNPP. Type of data set: ADME, Microsome.
Data set [13] can be described thus: Ratio of half life in human liver microsomes in presence of ABT to t1/2 in human liver microsomes absence of ABT. It counts as ADME, Microsome.
The nature of data set [14]: Metabolic stability in human liver microsomes assessed as half life in presence of NADPH measured upto 60 mins in presence of 10 uM montelukast by LC-MS/MS analysis. Particulars: with montelukast. Type of data set: ADME, Microsome.
A short description of data set [15]: Stability in human plasma assessed as half life at pH 7.4 measured upto 5 hrs by LC-MS/MS analysis. It counts as ADME, cell-free.
Data set [16] in a line: Metabolic stability in human liver microsomes assessed as half life in presence of NADPH measured upto 60 mins in presence of 5 mM BNPP carboxylesterase inhibitor by LC-MS/MS analysis. Type of data set: ADME, Microsome. Particulars: with BNPP (carboxylesterase inhibitor).
The nature of data set [17]: Metabolic stability in human liver microsomes assessed as half life in presence of NADPH measured upto 60 mins in presence of 2.5 mM ABT cytochrome P450 inhibitor by LC-MS/MS analysis. Type of data set: ADME, Microsome. The settings on record: with ABT (cytochrome P450 inhibitor).
Data set [18] in a line: Metabolic stability in human liver microsomes assessed as intrinsic clearance measured per mg of protein in presence of NADPH measured upto 60 mins in presence of 2 uM ketoconazole by LC-MS/MS analysis. It counts as ADME, Microsome. The settings on record: 1 h.

In general, half-life refers to the time needed for the level to fall by half in the phase considered. As for `CNC(=O)SCCCCCCC(=O)Nc1nc(-c2ccc(F)cc2)cs1`, the half-life in data set [1] was 7.61 min; in data set [4], 18.2 min; in [6] it was 4.81 min; in data set [7], 7.1 min; in data set [8], 7.42 min; in data set [9], 7.28 min. The half-life in data set [14] is 10.4 min; in [15] it was above 300 min; in data set [16], 54.9 min; in data set [17], 68.3 min. Further, the CLint in data set [2] is 203 µL/min/mg; in [3], 288 µL/min/mg; in data set [5], 296 µL/min/mg; in data set [10], 283 µL/min/mg; in data set [11], 276 µL/min/mg; in [18] it was 115 µL/min/mg. The Ratio in data set [12] amounted to 8.53; in data set [13], 10.62.
